Test results published in ChEMBL document CHEMBL5325394, “What We Have Gained from Ibogaine: α3β4 Nicotinic Acetylcholine Receptor Inhibitors as Treatments for Substance Use Disorders” (J Med Chem, 2023).
Where a SMILES comes first, the peptide text is derived from it. Bridges are numbered along the chain shown (N, C = ends).

Experiments:
[1] = target: T1, Neuronal acetylcholine receptor; alpha3/beta4 (Homo sapiens, UniProt P30926+P32297); assay: Partial agonist activity at alpha3beta4 nAChR in HEK293 cells assessed as reduction in Ca+2 influx by FLIPR assy; assay type: cell-based
T1 sequence (P30926 whole entry): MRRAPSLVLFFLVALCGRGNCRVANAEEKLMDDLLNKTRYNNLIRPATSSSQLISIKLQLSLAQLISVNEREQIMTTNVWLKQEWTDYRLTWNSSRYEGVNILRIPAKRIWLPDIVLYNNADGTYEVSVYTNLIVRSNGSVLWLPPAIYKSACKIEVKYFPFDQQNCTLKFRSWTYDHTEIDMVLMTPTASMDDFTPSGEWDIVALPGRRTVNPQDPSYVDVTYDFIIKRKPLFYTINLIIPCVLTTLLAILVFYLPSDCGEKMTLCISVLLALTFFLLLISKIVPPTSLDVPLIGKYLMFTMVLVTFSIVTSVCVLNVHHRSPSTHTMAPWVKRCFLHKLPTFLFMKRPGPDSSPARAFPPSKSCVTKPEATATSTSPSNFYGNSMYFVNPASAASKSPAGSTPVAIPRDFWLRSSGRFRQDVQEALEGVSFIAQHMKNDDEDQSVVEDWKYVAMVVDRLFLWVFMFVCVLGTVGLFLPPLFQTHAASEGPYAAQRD
T1 sequence (P32297 whole entry): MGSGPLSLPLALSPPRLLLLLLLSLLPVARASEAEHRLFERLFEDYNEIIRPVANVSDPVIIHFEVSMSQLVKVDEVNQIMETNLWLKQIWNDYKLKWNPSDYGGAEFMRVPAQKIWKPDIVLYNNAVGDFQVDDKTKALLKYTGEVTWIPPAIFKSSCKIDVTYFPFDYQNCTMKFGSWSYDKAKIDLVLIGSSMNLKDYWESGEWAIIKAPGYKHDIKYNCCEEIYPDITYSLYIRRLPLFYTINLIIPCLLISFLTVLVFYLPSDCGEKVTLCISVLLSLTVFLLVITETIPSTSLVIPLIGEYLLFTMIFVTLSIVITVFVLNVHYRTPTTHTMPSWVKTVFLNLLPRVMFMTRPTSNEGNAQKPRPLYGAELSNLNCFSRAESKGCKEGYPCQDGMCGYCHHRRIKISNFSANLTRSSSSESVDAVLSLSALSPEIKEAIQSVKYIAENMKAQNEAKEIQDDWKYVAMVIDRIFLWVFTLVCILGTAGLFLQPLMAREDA

[2] = target: T2, Neuronal acetylcholine receptor; alpha4/beta2 (Homo sapiens, UniProt P17787+P43681); assay: Partial agonist activity at alpha4beta2 nAChR in HEK293 cells assessed as reduction in Ca+2 influx by FLIPR assy; assay type: cell-based
T2 sequence (P17787 whole entry): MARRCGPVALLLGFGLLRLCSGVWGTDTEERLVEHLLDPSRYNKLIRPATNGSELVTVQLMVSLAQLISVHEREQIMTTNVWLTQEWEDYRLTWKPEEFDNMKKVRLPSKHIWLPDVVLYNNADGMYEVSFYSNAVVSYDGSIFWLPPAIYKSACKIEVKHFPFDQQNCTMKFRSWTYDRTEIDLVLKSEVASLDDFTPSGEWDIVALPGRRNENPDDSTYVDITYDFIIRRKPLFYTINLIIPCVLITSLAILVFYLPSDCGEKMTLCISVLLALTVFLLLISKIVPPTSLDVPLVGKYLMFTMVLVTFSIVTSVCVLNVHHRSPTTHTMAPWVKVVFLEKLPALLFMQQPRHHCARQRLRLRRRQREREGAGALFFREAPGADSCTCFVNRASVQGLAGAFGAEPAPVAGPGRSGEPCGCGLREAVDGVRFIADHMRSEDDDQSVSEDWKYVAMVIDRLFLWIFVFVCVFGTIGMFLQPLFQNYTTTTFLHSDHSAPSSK
T2 sequence (P43681 whole entry): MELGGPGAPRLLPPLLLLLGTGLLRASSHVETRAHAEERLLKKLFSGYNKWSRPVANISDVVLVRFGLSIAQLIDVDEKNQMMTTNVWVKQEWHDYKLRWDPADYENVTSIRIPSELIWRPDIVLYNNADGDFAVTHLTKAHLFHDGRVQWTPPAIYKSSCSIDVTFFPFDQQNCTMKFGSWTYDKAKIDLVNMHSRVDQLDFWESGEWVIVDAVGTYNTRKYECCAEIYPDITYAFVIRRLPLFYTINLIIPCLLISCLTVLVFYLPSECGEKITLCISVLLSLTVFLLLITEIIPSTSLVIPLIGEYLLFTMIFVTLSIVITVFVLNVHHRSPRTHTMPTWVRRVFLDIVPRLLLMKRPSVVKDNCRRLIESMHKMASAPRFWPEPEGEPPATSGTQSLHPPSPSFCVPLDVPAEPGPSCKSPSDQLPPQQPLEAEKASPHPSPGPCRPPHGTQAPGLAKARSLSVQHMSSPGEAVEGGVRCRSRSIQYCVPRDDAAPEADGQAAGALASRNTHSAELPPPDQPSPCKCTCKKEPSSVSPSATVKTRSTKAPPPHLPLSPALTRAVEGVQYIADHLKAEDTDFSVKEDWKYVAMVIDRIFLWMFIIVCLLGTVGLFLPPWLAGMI

[3] = target: T3, Neuronal acetylcholine receptor subunit alpha-7 (Homo sapiens, UniProt P36544); assay: Antagonist activity at nAChR alpha7 in human SH-SY5Y cells assessed as increase in intracellular calcium level preincubated for 10 mins followed by choline addition measured after 30 mins by FLIPR assay; assay type: cell-based
T3 sequence (P36544 whole entry): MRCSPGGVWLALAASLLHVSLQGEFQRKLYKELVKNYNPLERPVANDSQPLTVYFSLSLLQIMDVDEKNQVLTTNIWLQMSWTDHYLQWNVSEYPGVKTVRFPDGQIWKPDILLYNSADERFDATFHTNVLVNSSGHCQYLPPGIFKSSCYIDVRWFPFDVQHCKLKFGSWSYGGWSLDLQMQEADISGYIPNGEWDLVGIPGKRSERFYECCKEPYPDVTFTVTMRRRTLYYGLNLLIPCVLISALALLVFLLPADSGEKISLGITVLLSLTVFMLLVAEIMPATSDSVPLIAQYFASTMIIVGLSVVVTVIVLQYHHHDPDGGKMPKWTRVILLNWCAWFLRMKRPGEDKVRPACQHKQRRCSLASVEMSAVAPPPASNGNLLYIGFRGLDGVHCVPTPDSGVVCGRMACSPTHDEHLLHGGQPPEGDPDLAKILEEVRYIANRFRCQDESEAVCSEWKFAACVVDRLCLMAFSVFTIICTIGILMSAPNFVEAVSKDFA

[4] = target: T1, Neuronal acetylcholine receptor; alpha3/beta4; assay: Antagonist activity at nAChR alpha3beta4 in human SH-SY5Y cells assessed as increase in intracellular calcium level preincubated for 10 mins followed by nicotine addition measured after 30 mins by FLIPR assay; assay type: cell-based
[5] = target: T1, Neuronal acetylcholine receptor; alpha3/beta4; assay: Inhibition of alpha3beta4 nAChRs (unknown origin); assay type: protein-complex assay
[6] = target: Neuronal acetylcholine receptor; alpha4/beta2 (Rattus norvegicus, UniProt P09483+P12390); assay: Antagonist activity at rat alpha4beta2 nACh receptor expressed in Xenopus oocyte by voltage-clamp based electrophysiological assay; assay type: cell-based
Sequence of Neuronal acetylcholine receptor; alpha4/beta2 (Rattus norvegicus, UniProt P09483+P12390) (P09483 whole entry): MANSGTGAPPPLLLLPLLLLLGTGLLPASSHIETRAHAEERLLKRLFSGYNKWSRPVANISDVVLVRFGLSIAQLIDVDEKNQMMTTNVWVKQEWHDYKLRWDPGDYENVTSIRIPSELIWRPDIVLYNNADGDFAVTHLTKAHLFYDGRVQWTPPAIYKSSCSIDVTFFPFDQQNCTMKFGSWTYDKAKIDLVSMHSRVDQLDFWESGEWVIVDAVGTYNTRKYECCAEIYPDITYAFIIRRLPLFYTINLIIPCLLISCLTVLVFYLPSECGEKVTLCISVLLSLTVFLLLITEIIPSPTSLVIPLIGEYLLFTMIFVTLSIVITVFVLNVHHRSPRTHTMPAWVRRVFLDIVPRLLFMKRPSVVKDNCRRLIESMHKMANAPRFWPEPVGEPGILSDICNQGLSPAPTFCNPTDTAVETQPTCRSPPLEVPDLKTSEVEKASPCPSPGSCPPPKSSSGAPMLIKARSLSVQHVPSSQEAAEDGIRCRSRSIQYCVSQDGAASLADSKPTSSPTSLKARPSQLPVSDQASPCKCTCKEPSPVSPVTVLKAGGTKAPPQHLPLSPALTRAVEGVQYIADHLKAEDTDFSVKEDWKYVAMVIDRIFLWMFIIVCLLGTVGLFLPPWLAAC
Sequence of Neuronal acetylcholine receptor; alpha4/beta2 (Rattus norvegicus, UniProt P09483+P12390) (P12390 whole entry): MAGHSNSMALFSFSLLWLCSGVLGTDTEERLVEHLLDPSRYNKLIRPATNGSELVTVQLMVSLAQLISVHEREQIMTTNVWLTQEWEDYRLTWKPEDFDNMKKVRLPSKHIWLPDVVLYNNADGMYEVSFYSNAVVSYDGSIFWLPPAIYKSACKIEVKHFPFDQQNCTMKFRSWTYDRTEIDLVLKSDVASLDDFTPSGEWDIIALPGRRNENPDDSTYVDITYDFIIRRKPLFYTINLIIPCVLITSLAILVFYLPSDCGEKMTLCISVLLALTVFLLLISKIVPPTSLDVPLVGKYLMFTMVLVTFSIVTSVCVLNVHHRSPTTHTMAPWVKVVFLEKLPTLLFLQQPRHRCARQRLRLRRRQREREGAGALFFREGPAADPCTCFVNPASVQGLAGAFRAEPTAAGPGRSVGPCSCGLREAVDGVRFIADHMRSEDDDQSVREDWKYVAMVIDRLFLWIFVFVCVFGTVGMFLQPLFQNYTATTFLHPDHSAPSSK

[7] = target: Neuronal acetylcholine receptor; alpha3/beta4 (Rattus norvegicus, UniProt P04757+P12392); assay: Antagonist activity at rat alpha3beta4 nACh receptor expressed in Xenopus oocyte by voltage-clamp based electrophysiological assay; assay type: cell-based
Sequence of Neuronal acetylcholine receptor; alpha3/beta4 (Rattus norvegicus, UniProt P04757+P12392) (P04757 whole entry): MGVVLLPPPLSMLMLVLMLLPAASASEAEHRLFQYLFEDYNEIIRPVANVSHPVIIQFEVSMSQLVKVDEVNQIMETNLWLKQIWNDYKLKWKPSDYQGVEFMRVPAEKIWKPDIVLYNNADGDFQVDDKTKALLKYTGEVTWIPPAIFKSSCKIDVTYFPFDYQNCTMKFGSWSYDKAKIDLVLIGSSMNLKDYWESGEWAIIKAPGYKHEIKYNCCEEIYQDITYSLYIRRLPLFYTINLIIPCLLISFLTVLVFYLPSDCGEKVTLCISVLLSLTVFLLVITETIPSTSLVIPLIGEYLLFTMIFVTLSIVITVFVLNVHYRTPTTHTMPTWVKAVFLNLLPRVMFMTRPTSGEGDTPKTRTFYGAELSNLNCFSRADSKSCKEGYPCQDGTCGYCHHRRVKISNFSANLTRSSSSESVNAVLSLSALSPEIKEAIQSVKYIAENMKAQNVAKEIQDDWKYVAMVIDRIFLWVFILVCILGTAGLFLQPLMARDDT
Sequence of Neuronal acetylcholine receptor; alpha3/beta4 (Rattus norvegicus, UniProt P04757+P12392) (P12392 whole entry): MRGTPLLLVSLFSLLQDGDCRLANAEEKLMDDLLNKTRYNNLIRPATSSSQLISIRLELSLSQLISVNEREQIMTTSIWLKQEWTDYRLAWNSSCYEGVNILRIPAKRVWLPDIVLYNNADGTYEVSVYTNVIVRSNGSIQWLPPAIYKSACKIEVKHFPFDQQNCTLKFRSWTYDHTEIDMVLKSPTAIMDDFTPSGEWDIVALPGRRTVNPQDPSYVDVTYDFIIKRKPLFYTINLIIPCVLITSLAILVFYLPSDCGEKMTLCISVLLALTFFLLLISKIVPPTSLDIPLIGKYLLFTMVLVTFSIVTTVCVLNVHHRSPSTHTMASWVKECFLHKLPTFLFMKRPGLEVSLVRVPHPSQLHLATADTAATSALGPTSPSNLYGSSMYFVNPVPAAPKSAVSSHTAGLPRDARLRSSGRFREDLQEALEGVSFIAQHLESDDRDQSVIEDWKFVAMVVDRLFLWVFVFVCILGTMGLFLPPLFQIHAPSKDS

[8] = target: T3, Neuronal acetylcholine receptor subunit alpha-7; assay: Antagonist activity at human alpha7 nACh receptor expressed in Xenopus oocyte by voltage-clamp based electrophysiological assay; assay type: cell-based
[9] = target: Neuronal acetylcholine receptor; alpha3/beta2 (Rattus norvegicus, UniProt P04757+P12390); assay: Antagonist activity at rat alpha3beta2 nACh receptor expressed in Xenopus oocyte by voltage-clamp based electrophysiological assay; assay type: cell-based
[10] = target: T1, Neuronal acetylcholine receptor; alpha3/beta4; assay: Antagonist activity at recombinant alpha3beta4 nAChR in HEK293 cells by voltage-clamp based electrophysiological method; assay type: cell-based
[11] = target: Mu-type opioid receptor (Bos taurus, UniProt P79350); assay: Displacement of [3H]-DAGO from calf cortex MOR receptor assessed as inhibition constant; assay type: tissue-based
[12] = target: T2, Neuronal acetylcholine receptor; alpha4/beta2; assay: Antagonist activity at alpha4beta2 nAChR in HEK293 cells by voltage-clamp based electrophysiological method; assay type: cell-based
[13] = target: T1, Neuronal acetylcholine receptor; alpha3/beta4; assay: Antagonist activity at human alpha3beta4 nAChRs expressed in HEK293 cells assessed as inhibition of (+/-)-epibatidine-induced Ca+2 influx incubated for 5 mins by FLIPR analysis; assay type: cell-based
[14] = Displacement of [3H]-GR-65,630 from 5-HT3 receptor in mouse NG-108 cells assessed as inhibition constant; assay type: cell-based; conditions: ng-108 cell
[15] = target: T1, Neuronal acetylcholine receptor; alpha3/beta4; assay: Displacement of [3H]imipramine from human alpha3beta4 nAChRs expressed in HEK293 cells assessed as inhibition constant incubated for 2 hrs by scintillation counter analysis; assay type: cell-based
[16] = Displacement of [3H]-BTX-B from bovine cortex sodium channel assessed as inhibition constant; assay type: tissue-based, Bos taurus
[17] = Displacement of [3H]-DPDPE from calf caudate nucleus DOR receptor assessed as inhibition constant; assay type: tissue-based, Bos taurus
[18] = target: T3, Neuronal acetylcholine receptor subunit alpha-7; assay: Inhibition of nAChR alpha7 receptor (unknown origin) assessed as inhibition of calcium flux
[19] = target: Sigma intracellular receptor 2 (Bos taurus, UniProt Q3MHW7); assay: Displacement of [3H]-DTG from calf hippocampus sigma 2 receptor assessed as inhibition constant; assay type: tissue-based
Sequence of Sigma intracellular receptor 2 (Q3MHW7 whole entry): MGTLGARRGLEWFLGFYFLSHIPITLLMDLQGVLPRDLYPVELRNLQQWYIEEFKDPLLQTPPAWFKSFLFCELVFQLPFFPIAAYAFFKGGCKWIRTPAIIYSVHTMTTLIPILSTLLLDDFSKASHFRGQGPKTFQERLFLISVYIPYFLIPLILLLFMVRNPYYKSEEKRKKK

[20] = target: T2, Neuronal acetylcholine receptor; alpha4/beta2; assay: Inhibition of nAChR alpha4beta2 receptor (unknown origin); assay type: protein-complex assay
[21] = target: T4, Muscarinic acetylcholine receptor M1 (Bos taurus, UniProt Q8WMX0); assay: Displacement of [3H]-pirenzepine from calf cortex Muscarinic M1 receptor assessed as inhibition constant; assay type: tissue-based
T4 sequence (Q8WMX0 whole entry): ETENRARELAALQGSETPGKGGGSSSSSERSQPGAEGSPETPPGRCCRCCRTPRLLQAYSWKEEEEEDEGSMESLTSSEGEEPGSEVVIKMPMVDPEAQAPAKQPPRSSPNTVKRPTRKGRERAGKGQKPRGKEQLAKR

SMILES: FC(F)(F)c1ccc2c(c1)[C@@H]1CNC[C@H]2C1
- IC50 [1]: 260 nM
- IC50 [2]: 110 nM

SMILES: CC[C@H](C)[C@@H]1NC(=O)[C@H](CC(N)=O)NC(=O)[C@@H]2CCCN2C(=O)[C@H](CC(N)=O)NC(=O)[C@H](CC(N)=O)NC(=O)[C@H](C(C)C)NC(=O)[C@H](CCSC)NC(=O)[C@@H]2CSSC[C@H](NC(=O)CNC(=O)[C@@H](N)CO)C(=O)N[C@@H](CSSC[C@@H](C(=O)O)NC1=O)C(=O)N[C@@H](CO)C(=O)N[C@@H](CC(N)=O)C(=O)N1CCC[C@H]1C(=O)N[C@@H](C)C(=O)N2 (H-SGCCSNPACMVNNPNIC-OH; disulfide 3-9, 4-17)
- IC50 [3]: 242 nM
- IC50 [4]: 440 nM

SMILES: CC(C)C[C@@H]1NC(=O)[C@H](C(C)C)NC(=O)[C@H](C)NC(=O)[C@@H]2CSSC[C@H](NC(=O)CN)C(=O)N[C@@H](CSSC[C@@H](C(=O)O)NC(=O)[C@H](Cc3ccc(O)cc3)NC1=O)C(=O)N[C@@H](CO)C(=O)N[C@@H]([C@@H](C)O)C(=O)N1CCC[C@H]1C(=O)N1CCC[C@H]1C(=O)N2 (H-GCCSTPPCAVLYC-OH; disulfide 2-8, 3-13)
- IC50 [5]: 27.7 nM

SMILES: CC[C@H](C)[C@@H]1NC(=O)[C@H](CC(N)=O)NC(=O)[C@@H]2CCCN2C(=O)[C@H](CC(N)=O)NC(=O)[C@H](CC(C)C)NC(=O)[C@H](C(C)C)NC(=O)[C@H](Cc2ccccc2)NC(=O)[C@@H]2CSSC[C@H](NC(=O)CNC(=O)[C@@H](N)CO)C(=O)N[C@@H](CSSC[C@@H](C(=O)O)NC1=O)C(=O)N[C@@H](CO)C(=O)N[C@@H](CC(N)=O)C(=O)N1CCC[C@H]1C(=O)N[C@@H](C)C(=O)N2 (H-SGCCSNPACFVLNPNIC-OH; disulfide 3-9, 4-17)
- IC50 [3]: > 100000 nM
- IC50 [4]: 410 nM

SMILES: CC[C@H](C)[C@H](NC(=O)[C@H](Cc1cnc[nH]1)NC(=O)[C@@H]1CCCN1C(=O)[C@H](CC(N)=O)NC(=O)[C@H](CC(N)=O)NC(=O)[C@@H](NC(=O)[C@H](CC(N)=O)NC(=O)[C@H](CS)NC(=O)[C@H](C)NC(=O)[C@@H]1CCCN1C(=O)[C@H](Cc1cnc[nH]1)NC(=O)[C@H](CO)NC(=O)[C@H](CS)NC(=O)[C@H](CS)NC(=O)CN)C(C)C)C(=O)N[C@@H](CS)C(=O)O (H-GCCSHPACNVNNPHIC-OH)
- IC50 [6]: > 100000 nM
- IC50 [7]: 97 nM
- IC50 [8]: 103 nM
- IC50 [9]: 33 nM

SMILES: COCC[C@H]1C[C@H]2CN3CCc4c([nH]c5ccc(OC)cc45)[C@](C(=O)OC)(C2)[C@H]13 (racemic)
- IC50 [10]: 750 nM
- Ki [11]: 1.1 nM
- IC50 [12]: > 20000 nM
- IC50 [13]: 1470 nM
- Ki [14]: 3.8 nM
- Ki [15]: 400 nM
- Ki [16]: 6.4 nM
- Ki [17]: 3.5 nM
- IC50 [18]: 34700 nM
- Ki [19]: 13 nM
- IC50 [20]: 6300 nM
- Ki [21]: 32 nM
